# Measured values published in patent US6858641B2, “Substituted indolinones” (Boehringer Ingelheim Pharma KG, priority 2001, dated 2005).
# Tested on: Human umbilical endothelial cells (HUVEC)
# Experiment: Inhibition of VEGF165-stimulated HUVEC proliferation (3H-thymidine incorporation)
# Assay type: cell-based
# Conditions: HUVEC stimulated with 5 ng/ml VEGF165 and 10 μg/ml heparin; 76 hours incubation then 16 hours 3H-thymidine; concentration inhibiting proliferation by 50%
# Protocol: Human umbilical endothelial cells (HUVEC) were cultivated in IMDM (Gibco BRL), supplemented with 10% foetal calf serum (FBS) (Sigma), 50 μM of β-mercaptoethanol (Fluka), standard antibiotics, 15 μg/ml of endothelial cell growth factor (ECGS, Collaborative Biomedical Products) and 100 μg/ml of heparin (Sigma) on gelatine-coated culture dishes (0.2% gelatine, Sigma) at 37° C., under 5% CO2 in a water-saturated atmosphere.
# In order to investigate the inhibitory activity of the compounds according to the invention the cells were “starved” for 16 hours, i.e. kept in culture medium without growth factors (ECGS+heparin). The cells were detached from the culture dishes using trypsin/EDTA and washed once in serum-containing medium. Then they were seeded out in amounts of 2.5×10^3 cells per well.
# The proliferation of the cells was stimulated with 5 ng/ml of VEGF165 (vascular endothelial growth factor; H. Weich, GBF Braunschweig) and 10 μg/ml of heparin. As a control, 6 wells in each dish were not stimulated.
# The compounds according to the invention were dissolved in 100% dimethylsulphoxide and added to the cultures in various dilutions as triple measurements, the maximum dimethylsulphoxide concentration being 0.3%.
# The cells were incubated for 76 hours at 37° C., then for a further 16 hours ^3H-thymidine (0.1 μCi/well, Amersham) was added in order to determine the DNA synthesis. Then the radioactively labelled cells were immobilised on filter mats and the radioactivity incorporated was measured in a β-counter. In order to determine the inhibitory activity of the compounds according to the invention the mean value of the non-stimulated cells was subtracted from the mean value of the factor-stimulated cells (in the presence or absence of the compounds according to the invention).
# The relative cell proliferation was calculated as a percentage of the control (HUVEC without inhibitor) and the concentration of active substance which inhibits the proliferation of the cells by 50% (IC50) was determined.
row,Compound,IC50 [µM]
1,methyl 3-(Z)-[1-{4-[(4-ethyl-piperazin-1-yl)-carbonyl]-phenylamino}-1-phenyl-methylidene]-2-indolinone-6-carboxylate [(h)],0.02
2,"COC(=O)c1ccc2c(c1)NC(=O)/C2=C(\Nc1ccc(C(=O)N(C)CCCN(C)C)cc1)c1ccccc1 [(b), methyl 3-(Z)-[1-{4-[N-(3-dimethylamino-propyl)-N-methyl-carbamoyl]-phenylamino}-1-phenyl-methylidene]-2-indolinone-6-carboxylate]",0.02
3,"COC(=O)c1ccc2c(c1)NC(=O)/C2=C(\Nc1ccc(C(=O)N(C)CCN(C)C)cc1)c1ccccc1 [(a), methyl 3-(Z)-[1-{4-[N-(2-dimethylamino-ethyl)-N-methyl-carbamoyl]-phenylamino}-1-phenyl-methylidene]-2-indolinone-6-carboxylate]",0.04
4,methyl 3-(Z)-[1-{4-[(4-(2-hydroxy-ethyl)-piperazin-1-yl)-carbonyl]-phenylamino}1-phenyl-methylidene]-2-indolinone-6-carboxylate [(i)],0.02
5,methyl 3-(Z)-[1-{4-[(4-hydroxy-piperidin-1-yl)-carbonyl]-phenylamino}-1-phenyl-methylidene]-2-indolinone-6-carboxylate [(d)],0.05
6,methyl 3-(Z)-[1-{4-[(4-methyl-piperazin-1-yl)-carbonyl]-phenylamino}-1-phenyl-methylidene]-2-indolinone-6-carboxylate [(c)],0.03
